From patent US20080207614A1, “QUINAZOLINE DERIVATIVES FOR THE TREATMENT AND PREVENTION OF DIABETES AND OBESITY” (SK CHEMICALS CO., LTD., priority 2004, published 2008) come the findings set out here.

Each structure is given as a SMILES string.

The subject of one assay is C2C12 muscle cells. Description: Analysis of glucose absorption (2-deoxyglucose) in differentiated C2C12 muscle cells. The settings on record: test materials 10 μM, times relative to control group. Type of assay: cell-based. A digest of the protocol:
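Uptake of 0.2 μCi 2-deoxyglucose over 20 min, counted radiometrically in lysed cells. Before tracer, compounds (10 μM) were applied for 30 min to C2C12 cells differentiated 6 days in 1% serum and equilibrated 3 h in 5 mM glucose KRB.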

Another assay deals with AMPK. Put plainly: Measurement of AMPK activity by Western blot in C2C12 cells. More on the design: key to AMPK activity (degree of phosphorylation of serine-79 and threonine-172): fold increase in threonine-172 phosphorylation; AMPK activity (degree of phosphorylation of serine-79): unit not given here. The settings on record: 10 μM for 50 minutes; for AMPK activity (class: degree of phosphorylation of threonine-172): strong/mild/weak; for AMPK activity (degree of phosphorylation of serine-79 and threonine-172): no superscript: Western blot of serine-79 and threonine-172 phosphorylation. It is filed as cell-based. The procedure, abridged: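 Western blot readout of AMPK Thr-172 and ACC Ser-79 phosphorylation, normalised against ERK, served as the activity measure. Cells were C2C12 after differentiation, treated 50 minutes with 10 μM test material. Grading by Thr-172 increase: ≥3-fold strong, 1-3-fold mild, <1-fold weak.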
A general note: A western blot detects proteins with antibodies after separation by electrophoresis.

In the assay on C2C12 muscle cells, `CCSc1nc(NCc2c(F)cccc2Cl)c2ccccc2n1` [Compound 49, (2-Chloro-6-fluorobenzyl)-(2-ethylsulfanylquinazolino-4-yl)-amine] came in with a Glucose absorption of 1.8. Further, the “AMPK activity (class: degree of phosphorylation of threonine-172)” value in the assay on AMPK is given as “mild (“mild” means that the degree of phosphorylation of threonine-172 increased by 1 to 3 times)”.
`COc1cc(CNc2nc(C(C)c3ccccc3)nc3ccccc23)cc(OC)c1` (stereo not shown) [Compound 376, (3,5-Dimethoxybenzyl)-[2-(1-phenylethyl)-quinazolino-4-yl]-amine]: in the assay with C2C12 muscle cells, the Glucose absorption turned out to be 1.1. Further, the “AMPK activity (degree of phosphorylation of serine-79 and threonine-172)” value in the assay with AMPK came out at 1.1.
On to `CCC(CC)Nc1nc(-c2ccccc2)nc2ccccc12` [Compound 121, (1-Ethylpropyl)-(2-phenylquinazolino-4-yl)-amine], for which the Glucose absorption in the assay with C2C12 muscle cells was 2.4. Further, in the assay on AMPK, the “AMPK activity (degree of phosphorylation of serine-79 and threonine-172)” value is reported as 2.2; the “AMPK activity (class: degree of phosphorylation of threonine-172)” value is “strong (“strong” means that the degree of phosphorylation of threonine-172 increased by 3 times or more)”.
`c1ccc(CCCCNc2nc(-c3ccccn3)nc3ccccc23)cc1` [Compound 228, (4-Phenylbutyl)-(2-pyridino-2-ylquinazolino-4-yl)-amine] had a Glucose absorption with C2C12 muscle cells of 2.1. In addition, in the assay with AMPK, the “AMPK activity (degree of phosphorylation of serine-79 and threonine-172)” value was 7.9; the “AMPK activity (class: degree of phosphorylation of threonine-172)” value is listed as “strong (“strong” means that the degree of phosphorylation of threonine-172 increased by 3 times or more)”.
For `COc1ccc(CNc2nc(C(C)C)nc3ccccc23)c(OC)c1` [Compound 271, (2,4-Dimethoxybenzyl)-(2-isopropylquinazolino-4-yl)-amine], in the assay on C2C12 muscle cells, the Glucose absorption amounted to 0.8. The “AMPK activity (degree of phosphorylation of serine-79 and threonine-172)” value in the assay on AMPK is 2.4.
`CC(C)c1nc(NCCc2ccccc2)c2ccccc2n1` [Compound 179, (2-Isopropylquinazolino-4-yl)-phenethylamine] displayed a Glucose absorption in the assay on C2C12 muscle cells of 2.9. Also, in the assay with AMPK, the “AMPK activity (degree of phosphorylation of serine-79 and threonine-172)” value is 3.8; the “AMPK activity (class: degree of phosphorylation of threonine-172)” value is listed as “strong (“strong” means that the degree of phosphorylation of threonine-172 increased by 3 times or more)”.
In the assay on C2C12 muscle cells, `COc1ccccc1CNc1nc(C(C)C)nc2ccccc12` [Compound 321, (2-Isopropylquinazolino-4-yl)-(2-methoxybenzyl)-amine] registered a Glucose absorption of 1.2. Also, the “AMPK activity (degree of phosphorylation of serine-79 and threonine-172)” value in the assay on AMPK is given as 0.9.
With `c1ccc(-c2nc(NCc3ccc4c(c3)OCO4)c3ccccc3n2)nc1` [Compound 230, Benzo[1,3]dioxol-5-ylmethyl-(2-pyridino-2-ylquinazolino-4-yl)-amine], the Glucose absorption in the assay on C2C12 muscle cells is recorded as 1.7. For the same compound, in the assay with AMPK, the “AMPK activity (degree of phosphorylation of serine-79 and threonine-172)” value came out at 4.9; the “AMPK activity (class: degree of phosphorylation of threonine-172)” value was “strong (“strong” means that the degree of phosphorylation of threonine-172 increased by 3 times or more)”.
In the assay with C2C12 muscle cells, `COc1ccccc1CNc1nc(C(OC)c2ccccc2)nc2ccccc12` (stereo not shown) [Compound 360, (2-Methoxybenzyl)-[2-(methoxyphenylmethyl)-quinazolino-4-yl]-amine] registered a Glucose absorption of 1.4. Besides, the “AMPK activity (degree of phosphorylation of serine-79 and threonine-172)” value in the assay on AMPK came to 2.2.
In turn, `C1=C(CCNc2nc(-c3ccccc3)nc3ccccc23)CCCC1` [Compound 131, (2-Cyclohex-1-enylethyl)-(2-phenylquinazolino-4-yl)-amine] displayed a Glucose absorption with C2C12 muscle cells of 2.3. In addition, in the assay with AMPK, the “AMPK activity (degree of phosphorylation of serine-79 and threonine-172)” value is listed as 1.8; the “AMPK activity (class: degree of phosphorylation of threonine-172)” value is recorded as “strong (“strong” means that the degree of phosphorylation of threonine-172 increased by 3 times or more)”.
Compound `O=[N+]([O-])c1ccc2ncnc(Nc3ccccc3)c2c1` [Compound 13, (6-Nitro-quinazolino-4-yl)-phenylamine] had a Glucose absorption in the assay on C2C12 muscle cells of 0.7. For the same compound, the “AMPK activity (degree of phosphorylation of serine-79)” value in the assay with AMPK (footnote a: Western blot of serine-79 phosphorylation) is listed as 4.2^a.
For the compound `Brc1cccc(CNc2nc(-c3ccccc3)nc3ccccc23)c1` [Compound 153, (3-Bromobenzyl)-(2-phenylquinazolino-4-yl)-amine], the Glucose absorption in the assay with C2C12 muscle cells amounted to 2.4. Moreover, in the assay on AMPK, the “AMPK activity (degree of phosphorylation of serine-79 and threonine-172)” value is given as 1.3; the “AMPK activity (class: degree of phosphorylation of threonine-172)” value is listed as “mild (“mild” means that the degree of phosphorylation of threonine-172 increased by 1 to 3 times)”.
Take `COc1cc(CNc2nc(C(C)c3ccccc3)nc3ccccc23)cc(OC)c1OC` (stereo not shown) [Compound 378, [2-(1-Phenylethyl)-quinazolino-4-yl]-(3,4,5-trimethoxybenzyl)-amine]: the Glucose absorption in the assay with C2C12 muscle cells was 0.9. The “AMPK activity (degree of phosphorylation of serine-79 and threonine-172)” value in the assay with AMPK came out at 4.7.
`COc1ccccc1CNc1nc(C(C)c2ccccc2)nc2ccccc12` (stereo not shown) [Compound 371, (2-Methoxybenzyl)-[2-(1-phenylethyl)-quinazolino-4-yl]-amine] had a Glucose absorption with C2C12 muscle cells of 1.2. Further, the “AMPK activity (degree of phosphorylation of serine-79 and threonine-172)” value with AMPK was 2.8.
